From patent US20210315840A1, “SOLID ORAL DOSAGE FORMS OF KETAMINE DERIVATIVES” (priority 2017, published 2021)
Read-outs that look alike come from different tables or passages of the source.

How the values were obtained:
[1] = test system: 5-HT1, Non-Selective; assay: Binding assay 5-HT1, Non-Selective
Text: (§1) 2R,6R-hydroxynorketamine was investigated for binding to monoamine oxidases A and B, monoamine transporters, as well as a variety of 5HT receptors.
An absence of interaction between 2R,6R-hydroxynorketamine and 5HT1 receptors is also of note. Rare postmarketing reports have described patients with weakness, hyperreflexia, and incoordination following the use of an SSRI and the 5HT1 agonist, sumatriptan. The possibility of such interactions should also be considered if other 5HT1 agonists are to be used in combination with SSRIs.

[2] = target: UGT1A1 (Homo sapiens, UniProt P22309); assay: UGT inhibition assay UGT1A1; format: in vitro ADME
Text: 2R,6R-hydroxynorketamine was therefore investigated for its potential to inhibit this isozyme, along with that of the major UGT isozyme, UGT1A1, using a UGT inhibition assay.

[3] = Turbidimetric aqueous solubility; format: physicochemical
[4] = target: 5-HT2B (Homo sapiens, UniProt P41595); assay: Binding assay 5-HT2B
Text: as §1

[5] = target: 5-HT1B (Homo sapiens, UniProt P28222); assay: Binding assay 5-HT1B
Text: as §1

[6] = target: 5-HT2A (Homo sapiens, UniProt P28223); assay: Binding assay 5-HT2A
Text: as §1

[7] = target: T1, CYP3A4 (Homo sapiens, UniProt P08684); assay: CYP inhibition assay CYP3A4, substrate midazolam; format: in vitro ADME; details: for % Inhibition: Substrate = midazolam
Text: (§2) Cytochrome P450s (CYPs) are a family of enzymes that play a primary role in the metabolism of a wide variety of drugs. 2R,6R-hydroxynorketamine was investigated for its potential to inhibit the action of 7 key CYP enzymes using an inhibition assay measuring reduction in the formation of metabolites compared to control.

[8] = test system: Caco-2
[9] = target: CYP2C9 (Homo sapiens, UniProt P11712); assay: CYP inhibition assay CYP2C9; format: in vitro ADME
Text: as §2

[10] = target: T1, CYP3A4; assay: CYP inhibition assay CYP3A4, substrate testosterone; format: in vitro ADME; details: for % Inhibition: Substrate = testosterone
Text: as §2

[11] = target: MAO-A (Homo sapiens, UniProt P21397); assay: Binding assay MAO-A
Text: as §1

[12] = target: MAO-B (Homo sapiens, UniProt P27338); assay: Binding assay MAO-B
Text: as §1

[13] = target: T2, 5-HT2C (Homo sapiens, UniProt P28335); assay: Binding assay 5-HT2C
T2 sequence (P28335 33-458): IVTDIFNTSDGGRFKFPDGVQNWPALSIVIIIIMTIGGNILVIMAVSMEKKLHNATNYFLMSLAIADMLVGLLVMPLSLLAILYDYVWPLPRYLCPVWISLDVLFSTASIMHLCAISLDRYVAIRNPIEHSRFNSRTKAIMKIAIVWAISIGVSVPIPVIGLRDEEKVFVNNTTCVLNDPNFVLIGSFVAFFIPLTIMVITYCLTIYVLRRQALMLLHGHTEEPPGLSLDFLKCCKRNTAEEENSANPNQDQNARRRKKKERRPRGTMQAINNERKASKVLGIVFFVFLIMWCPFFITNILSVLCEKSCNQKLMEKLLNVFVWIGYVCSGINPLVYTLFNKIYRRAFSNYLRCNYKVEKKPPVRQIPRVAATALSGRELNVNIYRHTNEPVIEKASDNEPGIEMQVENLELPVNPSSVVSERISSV
Text: as §1

[14] = target: T3, 5-HT1A (Homo sapiens, UniProt P08908); assay: Binding assay 5-HT1A
T3 sequence (P08908 1-422): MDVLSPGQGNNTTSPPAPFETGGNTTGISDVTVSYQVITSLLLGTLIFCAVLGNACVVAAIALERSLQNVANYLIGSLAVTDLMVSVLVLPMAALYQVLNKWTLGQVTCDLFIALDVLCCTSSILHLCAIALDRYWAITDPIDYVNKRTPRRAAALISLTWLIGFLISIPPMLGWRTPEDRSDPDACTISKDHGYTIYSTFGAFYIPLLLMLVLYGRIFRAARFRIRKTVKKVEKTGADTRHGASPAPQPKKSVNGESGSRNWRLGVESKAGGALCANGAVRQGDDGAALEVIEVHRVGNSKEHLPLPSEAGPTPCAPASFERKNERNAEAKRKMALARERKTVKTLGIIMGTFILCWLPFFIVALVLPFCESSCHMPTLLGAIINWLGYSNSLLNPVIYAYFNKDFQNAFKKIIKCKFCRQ
Text: as §1

[15] = target: UGT2B7 (Homo sapiens, UniProt P16662); assay: UGT inhibition assay UGT2B7; format: in vitro ADME
Chain of UGT2B7 (P16662 24-529): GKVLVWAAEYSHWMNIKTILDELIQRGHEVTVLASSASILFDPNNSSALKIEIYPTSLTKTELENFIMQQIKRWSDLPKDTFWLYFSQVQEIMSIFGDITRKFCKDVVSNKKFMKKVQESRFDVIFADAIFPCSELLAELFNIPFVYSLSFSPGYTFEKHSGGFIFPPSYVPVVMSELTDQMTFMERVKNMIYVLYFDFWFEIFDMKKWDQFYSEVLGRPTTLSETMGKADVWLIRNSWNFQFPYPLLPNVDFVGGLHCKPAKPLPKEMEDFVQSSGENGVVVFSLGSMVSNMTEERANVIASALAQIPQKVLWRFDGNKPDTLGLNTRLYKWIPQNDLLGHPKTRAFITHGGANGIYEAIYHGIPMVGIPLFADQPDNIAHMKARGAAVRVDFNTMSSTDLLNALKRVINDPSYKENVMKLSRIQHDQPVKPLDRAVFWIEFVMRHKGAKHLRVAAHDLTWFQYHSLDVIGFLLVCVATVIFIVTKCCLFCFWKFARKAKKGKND

Chain of 5-HT1B (P28222 whole entry, species assumed): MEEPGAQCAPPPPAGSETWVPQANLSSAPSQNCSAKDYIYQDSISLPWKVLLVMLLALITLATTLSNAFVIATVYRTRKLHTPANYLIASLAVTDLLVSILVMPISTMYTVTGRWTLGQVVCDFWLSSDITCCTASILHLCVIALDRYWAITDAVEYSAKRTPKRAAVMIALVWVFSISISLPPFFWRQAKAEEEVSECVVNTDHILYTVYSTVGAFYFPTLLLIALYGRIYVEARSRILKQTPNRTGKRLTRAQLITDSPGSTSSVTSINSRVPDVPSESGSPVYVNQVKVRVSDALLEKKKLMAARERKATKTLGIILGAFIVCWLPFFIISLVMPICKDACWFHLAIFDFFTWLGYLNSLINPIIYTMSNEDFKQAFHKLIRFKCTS
Chain of CYP2C9 (P11712 whole entry): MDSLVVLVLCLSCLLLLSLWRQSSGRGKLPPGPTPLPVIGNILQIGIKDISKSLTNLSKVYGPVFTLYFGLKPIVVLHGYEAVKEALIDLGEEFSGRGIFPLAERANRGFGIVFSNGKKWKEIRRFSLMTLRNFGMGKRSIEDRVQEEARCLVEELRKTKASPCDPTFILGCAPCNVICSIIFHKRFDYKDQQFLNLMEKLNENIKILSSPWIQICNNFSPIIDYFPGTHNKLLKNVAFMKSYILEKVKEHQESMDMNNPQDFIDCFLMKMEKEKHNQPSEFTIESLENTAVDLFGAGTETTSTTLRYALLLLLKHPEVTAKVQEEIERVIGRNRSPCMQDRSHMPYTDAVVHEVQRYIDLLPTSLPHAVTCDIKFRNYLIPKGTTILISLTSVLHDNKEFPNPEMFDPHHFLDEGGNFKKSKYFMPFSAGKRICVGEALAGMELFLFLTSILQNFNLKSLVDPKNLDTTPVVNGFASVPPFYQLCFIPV
Chain of 5-HT2A (P28223 whole entry): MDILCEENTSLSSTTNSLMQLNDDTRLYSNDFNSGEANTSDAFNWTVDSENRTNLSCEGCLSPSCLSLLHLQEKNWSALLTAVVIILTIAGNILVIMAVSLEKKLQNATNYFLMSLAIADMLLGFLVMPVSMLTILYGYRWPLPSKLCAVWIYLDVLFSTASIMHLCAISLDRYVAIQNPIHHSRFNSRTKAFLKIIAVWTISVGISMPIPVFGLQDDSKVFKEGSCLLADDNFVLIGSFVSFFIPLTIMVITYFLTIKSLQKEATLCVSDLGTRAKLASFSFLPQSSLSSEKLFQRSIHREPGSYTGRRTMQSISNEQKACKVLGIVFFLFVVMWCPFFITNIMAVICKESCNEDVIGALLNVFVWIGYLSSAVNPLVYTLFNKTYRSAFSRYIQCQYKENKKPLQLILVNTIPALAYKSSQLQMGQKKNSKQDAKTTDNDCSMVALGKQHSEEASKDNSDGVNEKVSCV
Chain of 5-HT2B (P41595 whole entry, species assumed): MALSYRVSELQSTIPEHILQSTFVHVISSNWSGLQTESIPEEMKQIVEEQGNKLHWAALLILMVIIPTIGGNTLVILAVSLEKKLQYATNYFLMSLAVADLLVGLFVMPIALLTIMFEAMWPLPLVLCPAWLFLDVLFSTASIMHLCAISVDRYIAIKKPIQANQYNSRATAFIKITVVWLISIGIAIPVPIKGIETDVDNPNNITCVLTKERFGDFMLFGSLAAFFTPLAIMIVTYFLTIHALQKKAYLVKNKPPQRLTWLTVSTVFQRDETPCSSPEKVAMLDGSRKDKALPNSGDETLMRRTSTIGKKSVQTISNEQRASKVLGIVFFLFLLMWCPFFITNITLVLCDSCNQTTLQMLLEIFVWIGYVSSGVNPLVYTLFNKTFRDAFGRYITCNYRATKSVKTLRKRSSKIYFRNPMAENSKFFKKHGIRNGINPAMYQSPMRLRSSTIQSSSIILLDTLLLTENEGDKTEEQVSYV
T1 sequence (P08684 whole entry): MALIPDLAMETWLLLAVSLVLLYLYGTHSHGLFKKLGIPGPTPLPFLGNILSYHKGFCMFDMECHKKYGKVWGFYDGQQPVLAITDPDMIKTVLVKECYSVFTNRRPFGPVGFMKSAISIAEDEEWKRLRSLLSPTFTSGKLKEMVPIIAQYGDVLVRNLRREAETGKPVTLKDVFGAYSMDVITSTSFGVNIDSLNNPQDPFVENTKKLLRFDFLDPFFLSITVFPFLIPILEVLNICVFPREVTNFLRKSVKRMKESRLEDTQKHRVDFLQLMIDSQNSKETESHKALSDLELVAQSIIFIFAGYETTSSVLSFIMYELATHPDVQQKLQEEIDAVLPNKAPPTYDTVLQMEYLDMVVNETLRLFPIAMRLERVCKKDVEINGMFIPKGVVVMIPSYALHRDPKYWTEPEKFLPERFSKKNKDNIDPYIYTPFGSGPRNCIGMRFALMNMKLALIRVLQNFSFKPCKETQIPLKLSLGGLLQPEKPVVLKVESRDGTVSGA
Chain of MAO-A (P21397 whole entry, species assumed): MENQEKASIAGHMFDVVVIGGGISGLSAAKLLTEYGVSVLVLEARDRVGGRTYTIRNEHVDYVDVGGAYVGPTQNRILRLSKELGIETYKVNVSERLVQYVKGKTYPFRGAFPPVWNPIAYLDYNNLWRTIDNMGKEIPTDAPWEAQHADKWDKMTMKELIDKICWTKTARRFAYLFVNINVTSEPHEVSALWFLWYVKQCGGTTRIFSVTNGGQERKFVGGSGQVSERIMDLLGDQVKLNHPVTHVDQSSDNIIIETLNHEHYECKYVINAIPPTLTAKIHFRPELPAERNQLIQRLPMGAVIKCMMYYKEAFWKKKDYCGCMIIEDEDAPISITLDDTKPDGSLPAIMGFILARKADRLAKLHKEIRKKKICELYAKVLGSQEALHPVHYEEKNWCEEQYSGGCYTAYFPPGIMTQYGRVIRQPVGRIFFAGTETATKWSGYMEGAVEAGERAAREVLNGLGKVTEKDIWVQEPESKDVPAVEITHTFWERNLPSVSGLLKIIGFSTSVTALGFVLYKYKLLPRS
Chain of MAO-B (P27338 whole entry, species assumed): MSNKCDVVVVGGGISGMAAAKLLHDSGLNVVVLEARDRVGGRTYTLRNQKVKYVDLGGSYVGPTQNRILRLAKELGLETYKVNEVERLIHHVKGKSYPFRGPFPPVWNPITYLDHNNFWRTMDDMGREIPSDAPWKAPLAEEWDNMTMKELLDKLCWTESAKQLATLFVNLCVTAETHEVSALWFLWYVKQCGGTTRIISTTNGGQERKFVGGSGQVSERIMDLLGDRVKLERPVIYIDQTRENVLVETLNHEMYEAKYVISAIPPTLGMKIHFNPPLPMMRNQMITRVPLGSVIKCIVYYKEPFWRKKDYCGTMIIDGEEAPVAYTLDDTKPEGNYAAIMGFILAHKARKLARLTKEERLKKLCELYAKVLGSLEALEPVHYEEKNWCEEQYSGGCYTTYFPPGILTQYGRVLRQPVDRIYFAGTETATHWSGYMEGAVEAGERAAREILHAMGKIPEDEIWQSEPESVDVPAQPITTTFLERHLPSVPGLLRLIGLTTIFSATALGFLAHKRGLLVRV
Chain of UGT1A1 (P22309 26-533): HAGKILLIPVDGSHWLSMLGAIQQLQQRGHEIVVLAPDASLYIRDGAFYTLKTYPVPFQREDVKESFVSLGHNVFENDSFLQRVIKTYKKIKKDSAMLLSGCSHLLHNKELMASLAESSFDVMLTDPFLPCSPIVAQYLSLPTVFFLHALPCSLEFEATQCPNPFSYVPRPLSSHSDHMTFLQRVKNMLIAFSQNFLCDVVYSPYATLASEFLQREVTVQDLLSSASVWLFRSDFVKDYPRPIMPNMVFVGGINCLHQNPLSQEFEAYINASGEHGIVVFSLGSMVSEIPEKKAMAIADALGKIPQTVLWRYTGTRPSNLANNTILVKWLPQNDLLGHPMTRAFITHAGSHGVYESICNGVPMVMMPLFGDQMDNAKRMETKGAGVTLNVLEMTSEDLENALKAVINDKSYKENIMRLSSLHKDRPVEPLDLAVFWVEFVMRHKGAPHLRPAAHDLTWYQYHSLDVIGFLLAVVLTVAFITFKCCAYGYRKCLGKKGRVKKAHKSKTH

N[C@@]1(c2ccccc2Cl)CCC[C@@H](O)C1=O [2R,6R-hydroxynorketamine, 2R,6R-2-(2-Chlorophenyl)-2-(amino)-6-hydroxycyclohexanone]
% Inhibition of Control Specific Binding [1]: −9%
% of Control Specific Binding [1]: 105.4%
binding to 5HT1 receptors (in words) [1]: does not bind
inhibition of UGT1A1 (in words) [2]: does not inhibit
solubility (in words) [3]: high
% Inhibition of Control Specific Binding [4]: 5%
% of Control Specific Binding [4]: 100.9%
binding to 5HT2B receptor subtype (in words) [4]: does not bind
% Inhibition of Control Specific Binding [5]: −2%
% of Control Specific Binding [5]: 102.7%
binding to 5HT1B receptor subtype (in words) [5]: does not bind
% Inhibition of Control Specific Binding [6]: 0%
% of Control Specific Binding [6]: 103.8%
binding to 5HT2A receptor subtype (in words) [6]: does not bind
% Inhibition ([7]; 0.4 μM): 11.5%
% Inhibition ([7]; 1 μM): 8.44%
% Inhibition ([7]; 4 μM): 15.7%
% Inhibition ([7]; 10 μM): 25.7%
% Inhibition ([7]; 40 μM): 43.7%
% Inhibition ([7]; 100 μM): 57.5%
IC50 ([7]; substrate midazolam): 69 µM
substrate of p-gp or Breast Cancer Resistance Protein (BCRP) efflux transporters ([8]; Caco-2): not a substrate
permeability (in words) ([8]; Caco-2 permeability assay): high
Mean % Recovery ([8]; Direction = A2B): 98.9%
Mean Papp ([8]; Direction = A2B): 45.7 10^−6 cms^−1
Papp Replicate 1 ([8]; Direction = A2B): 49.1 10^−6 cms^−1
Papp Replicate 2 ([8]; Direction = A2B): 42.3 10^−6 cms^−1
Mean % Recovery ([8]; Direction = B2A): 103%
Mean Papp ([8]; Direction = B2A): 50.7 10^−6 cms^−1
Papp Replicate 1 ([8]; Direction = B2A): 52.8 10^−6 cms^−1
Papp Replicate 2 ([8]; Direction = B2A): 48.5 10^−6 cms^−1
inhibition of CYP2C9 (in words) [9]: did not inhibit
% Inhibition ([9]; 0.4 μM): 4.59%
% Inhibition ([9]; 1 μM): 5.92%
% Inhibition ([9]; 4 μM): 5.80%
% Inhibition ([9]; 10 μM): 11.9%
% Inhibition ([9]; 40 μM): −0.113%
% Inhibition ([9]; 100 μM): −1.33%
% Inhibition ([10]; 0.4 μM): 1.62%
% Inhibition ([10]; 1 μM): −0.509%
% Inhibition ([10]; 4 μM): 7.04%
% Inhibition ([10]; 10 μM): 12.4%
% Inhibition ([10]; 40 μM): 35.2%
% Inhibition ([10]; 100 μM): 53.4%
IC50 ([10]; substrate testosterone): 81 µM
% Inhibition of Control Specific Binding [11]: −5%
% of Control Specific Binding [11]: 97.7%
% Inhibition of Control Specific Binding [12]: −1%
% of Control Specific Binding [12]: 100.4%
% Inhibition of Control Specific Binding [13]: 10%
% of Control Specific Binding [13]: 91.1%
binding to 5HT2C receptor subtype (in words) [13]: does not bind
% Inhibition of Control Specific Binding [14]: 5%
% of Control Specific Binding [14]: 97.9%
binding to 5HT1A receptor subtype (in words) [14]: does not bind
inhibition of UGT2B7 (in words) [15]: does not inhibit
